Measured values reported in article PMC8875489, “Pharmaceutical and Safety Profile Evaluation of Novel Selenocompounds with Noteworthy Anticancer Activity” (Pharmaceutics, 2022).
Entries after “also recorded” stand apart in the source; their conditions may differ.

Key:
[1] = test system: human liver microsomes (HLMs); test: In vitro microsomal biotransformation test with TRIS buffer and solvent controls (LC-MS/MS); assay type: in vitro ADME; details: for stability in DMSO: organic solvent, LC-MS/MS
Experimental: The assessment of the metabolites generated in the in vitro microsomal biotransformation of the selenoester EDA-71 in liver microsomes was performed following a previously described protocol with minor modifications. Only this compound was evaluated because it combined an optimal solubility to be analyzed in this procedure with very significant activity. The protocol is provided in full detail in the Supplementary Materials. Briefly, the compound was exposed to microsomes for 2 h, and the mixture was later analyzed with LC–MS/MS to detect the generated metabolites.
In the next step of the research, a biochemical in vitro method with the use of human liver microsomes (HLMs) was applied to determine the metabolic activity of the compound EDA-71. This human liver microsomal model provides all the enzymes required for the phase I metabolism reactions (hydrolysis, oxidation, and reduction). Moreover, it is also possible, in certain conditions following the addition of all necessary cofactors, to conduct metabolism II phase reactions (glutathione transferase and N-acetyltransferase enzymatic reactions). In the drug discovery process, the microsomal is a standard in vitro method for the metabolism evaluation. Additionally, this assay can predict the biotransformation kinetics and intrinsic clearance of new derivatives. Finally, these biotransformation processes can be easily monitored with LC–MS/MS.
The NADPH-regenerating system, which contained a phosphate buffer (pH = 7.4; NADP^+, glucose-6-phosphate, and glucose-6-phosphate dehydrogenase), was used. The biotransformation process was monitored with the LC–MS/MS method at the end of the procedure at 2 h after the incubation.
This experimental fact prevented the detailed analysis of metabolic stability. […] Thus, the tested compounds were dissolved in DMSO immediately before the experiment to minimize the degradation risk. […]
1.4. In vitro metabolic stability evaluation in microsomes
1.4.1. Microsomal metabolic stability protocol
For the microsomal stability assay, the selenoester EDA-71 was selected. Before the experimental procedure, the HLMs and solutions necessary for preparing the regenera-tion fraction were stored at -80° C and TRIS buffer at 4° C. The NADP+ regeneration frac-tion was prepared freshly, at the day of the experiment.
1.4.2. Preparation of the working solutions and microsomal regeneration fraction In the first step of the experiment, after selection of the compounds, the 1000 μM working solution was prepared in the TRIS buffer (0.1 M, pH 7.5) from the 10 mM stocks in DMSO. Then, the fresh regeneration fraction was prepared from the 220 μL TRIS buffer, 25 μL of the “A” solution and 5 μL of the “B” solution.
1.4.3. Human liver microsomes and solvent controls
Further, two controls have been prepared: solvent control (142 μL of TRIS buffer with 8 μL of HLMs, 50 μL of the regeneration fraction and 200 μL of the pure methanol) and tested compound control (190 μL of TRIS buffer with 10 μL of the 1 mM tested compound solution and 200 μL of methanol). The biotransformation was carried out at the precise concentration of 1 mg/mL of HLMs.
1.4.4. Biotransformation performance
In the next step 132 μL of TRIS buffer were added into a sterile eppendorf. After that, 10 μL of 1000 μM solution of tested compound in TRIS buffer were added to the above-mentioned eppendorf and then, 8 μL of HLMs. The final concentration of tested com-pound was 50 μM. After gently mixing on the vortex, reaction mixture was preincubated for 5 minutes at 37° C on the thermoblock. Then, in the further step, the reaction was ini-tiated by adding 50 μL of the NADP+ regeneration fraction and incubated at 37° C for 2 h.
After that time, to terminate the reaction, the 200 μL of pure, cold methanol (for LC-MS/MS analysis) was added to probe, which contained the tested compound with HLMs.
Moreover, the same amount of cold methanol was added into the control sample with […]

[2] = test system: Salmonella Typhimurium TA100 strain; test: Reference experiment: impact on Salmonella Typhimurium growth (OD600); assay type: cell-based, Salmonella enterica serovar Typhimurium; details: 1 and 10 µM, 20 h, 37 °C
Experimental: Therefore, a reference experiment with 20 h of incubation at constant temperature conditions (37 °C) was performed in order to determine the effect of the tested compounds on the growth of the Salmonella Typhimurium used in the Ames test. […] Therefore, this method could be successfully applied to determine the safety profile of the tested derivatives.
it indicated the occurrence of cytotoxic events.
Salmonella Typhimurium growth
microplate assay. During the experiment, Salmonella Typhimurium TA100 strain was cul-
At the day of the experiment,
tions of 25 μM and 250 μM) respectively. The final compound and mutagenic agent con-
References in Supplementary (same numeration than in manuscript)
Appl Biochem Biotechnol, 2018, 184(1), 124-139.
Karczewska, E.; Kieć-Kononowicz, K.; Handzlik, J.; Jacob, C. Pronounced activity of aromatic selenocyanates against multidrug
Chem Biol Drug Res, 2017, 90(6), 1295-1306.
Drug Des Devel Ther, 2016,
icity of Environmental Samples. Environ Mol Mutagen, 2010, 51(1), 31-38.
stranded DNA is characterized by guanine to pyrimidine transversions. Nucleic Acids Res, 1992, 20(6), 1283-1287.

O=C1[Se]C(=O)c2ccccc21 [EDA-A6, benzo[c]selenophene-1,3-dione]
stability in DMSO [1]: stable

CC(=O)C[Se]C(=O)c1ccc(Cl)cc1 [EDA-71, Se-(2-oxopropyl) 4-chlorobenzoselenoate]
stability in TRIS buffer and LC-MS/MS analysis conditions ([1]; TRIS buffer pH = 7.4, control of microsomal assay): may not be stable; also recorded: unstable | stability in DMSO [1]: stable

C[Se]C(=O)c1cccc(C(=O)[Se]C)n1 [EDA-119, Se,Se-dimethyl pyridine-2,6-bis(carboselenoate)]
stability in DMSO [1]: stable

COC(=O)C[Se]C(=O)c1cc(OC)cc(OC)c1 [EDA-58, methyl 2-((3,5-dimethoxybenzoyl)selanyl)acetate]
stability in DMSO [1]: stable

C[Se]C(=O)c1ccc(C(=O)[Se]C)s1 [EDA-122, Se,Se-dimethyl thiophene-2,5-bis(carboselenoate)]
stability in DMSO [1]: stable

C[Se]C(=O)c1ccc(C(=O)[Se]C)cc1 [EDA-109, Se,Se-dimethyl benzene-1,4-bis(carboselenoate)]
effect on the growth of Salmonella Typhimurium [2]: stimulating effect on the growth
